Experimental data from patent US9266883B2, “Ring-fused bicyclic pyridyl derivatives as FGFR4 inhibitors” (Novartis AG, priority 2013, dated 2016).

Columns and labels:
FGFR3 (411-806) = FGFR3 (411-806) (Homo sapiens (Human), UniProt P22607); experiment: In vitro biochemical assay for FGFR3
FGFR2 (406-821) = FGFR2 (406-821) (Homo sapiens (Human), UniProt P21802); experiment: In vitro biochemical assay for FGFR2
FGFR1 (407-822) = FGFR1 (407-822) (Homo sapiens (Human), UniProt P11362); experiment: In vitro biochemical assay for FGFR1
[1] = tested on: HuH-7 hepatocellular carcinoma cells; experiment: CellTiter Glo (CTG) Assay; conditions: Homo sapiens, Huh-7, 72 h, read-out: HUH7 proliferation (nM) CTG
Tel-FGFR4 = Tel-FGFR4 (Homo sapiens (Human), UniProt P22455); experiment: In vitro cellular kinase assay for FGFR4 (BaF3-Tel-FGFR4 cells, MSD capture ELISA of tyrosine phosphorylation); format: cell-based; conditions: BaF3-Tel-FGFR4 cells, 1 hour incubation; read-out: Cellular BaF3 FGFR4 IC50
[2] = biological target: FGFR4 (GST-FGFR4(388-802)) (Homo sapiens (Human), UniProt P22455); experiment: In-vitro biochemical kinase assay for FGFR4 (Caliper microfluidic mobility shift); conditions: read-out: Biochemical FGFR4 IC50
Sequence of FGFR4 (GST-FGFR4(388-802)) (P22455 388-802): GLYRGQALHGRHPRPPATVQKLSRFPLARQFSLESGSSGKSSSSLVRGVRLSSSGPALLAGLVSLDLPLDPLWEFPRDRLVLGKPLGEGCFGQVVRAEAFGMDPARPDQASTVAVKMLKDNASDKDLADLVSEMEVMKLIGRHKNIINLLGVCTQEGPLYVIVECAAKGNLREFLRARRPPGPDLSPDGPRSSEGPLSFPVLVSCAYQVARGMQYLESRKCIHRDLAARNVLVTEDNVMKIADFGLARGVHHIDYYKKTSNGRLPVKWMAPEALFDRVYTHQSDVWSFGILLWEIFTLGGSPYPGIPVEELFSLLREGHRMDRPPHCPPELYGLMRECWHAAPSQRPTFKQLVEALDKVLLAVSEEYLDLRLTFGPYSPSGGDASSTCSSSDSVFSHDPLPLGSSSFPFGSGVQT

Sequence of FGFR3 (411-806) (P22607 411-806): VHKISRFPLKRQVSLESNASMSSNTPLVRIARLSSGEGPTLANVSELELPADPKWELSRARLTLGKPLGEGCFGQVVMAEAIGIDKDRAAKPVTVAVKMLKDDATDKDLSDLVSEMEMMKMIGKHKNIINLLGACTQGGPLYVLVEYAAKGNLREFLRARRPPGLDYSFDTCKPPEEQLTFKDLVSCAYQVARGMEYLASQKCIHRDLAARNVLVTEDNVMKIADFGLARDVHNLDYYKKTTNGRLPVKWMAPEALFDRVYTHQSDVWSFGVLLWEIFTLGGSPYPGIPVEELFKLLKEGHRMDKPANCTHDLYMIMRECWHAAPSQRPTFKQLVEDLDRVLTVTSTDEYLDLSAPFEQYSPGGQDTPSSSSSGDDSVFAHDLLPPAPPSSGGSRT
Sequence of Tel-FGFR4 (P22455 other isoform, or with tags, fused parts or gaps): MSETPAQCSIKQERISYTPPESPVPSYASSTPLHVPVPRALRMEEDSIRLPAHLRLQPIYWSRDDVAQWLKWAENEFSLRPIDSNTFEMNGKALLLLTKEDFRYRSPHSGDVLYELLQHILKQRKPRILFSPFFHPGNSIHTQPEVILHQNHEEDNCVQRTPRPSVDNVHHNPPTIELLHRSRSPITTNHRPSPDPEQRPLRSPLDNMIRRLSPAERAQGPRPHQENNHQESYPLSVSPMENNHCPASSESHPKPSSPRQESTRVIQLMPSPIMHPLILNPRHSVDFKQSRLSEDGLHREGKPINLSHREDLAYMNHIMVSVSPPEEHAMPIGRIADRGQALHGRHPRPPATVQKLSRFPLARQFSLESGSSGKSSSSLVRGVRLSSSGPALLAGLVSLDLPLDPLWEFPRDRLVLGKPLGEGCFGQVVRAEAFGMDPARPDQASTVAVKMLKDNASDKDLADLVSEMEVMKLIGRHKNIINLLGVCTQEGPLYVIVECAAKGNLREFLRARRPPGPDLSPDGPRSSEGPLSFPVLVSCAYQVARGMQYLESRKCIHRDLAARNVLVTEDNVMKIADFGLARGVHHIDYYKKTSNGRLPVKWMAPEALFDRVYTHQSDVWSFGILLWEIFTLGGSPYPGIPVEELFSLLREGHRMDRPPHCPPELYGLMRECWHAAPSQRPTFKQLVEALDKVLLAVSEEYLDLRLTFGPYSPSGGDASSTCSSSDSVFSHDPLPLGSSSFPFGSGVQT
Sequence of FGFR2 (406-821) (P21802 406-821): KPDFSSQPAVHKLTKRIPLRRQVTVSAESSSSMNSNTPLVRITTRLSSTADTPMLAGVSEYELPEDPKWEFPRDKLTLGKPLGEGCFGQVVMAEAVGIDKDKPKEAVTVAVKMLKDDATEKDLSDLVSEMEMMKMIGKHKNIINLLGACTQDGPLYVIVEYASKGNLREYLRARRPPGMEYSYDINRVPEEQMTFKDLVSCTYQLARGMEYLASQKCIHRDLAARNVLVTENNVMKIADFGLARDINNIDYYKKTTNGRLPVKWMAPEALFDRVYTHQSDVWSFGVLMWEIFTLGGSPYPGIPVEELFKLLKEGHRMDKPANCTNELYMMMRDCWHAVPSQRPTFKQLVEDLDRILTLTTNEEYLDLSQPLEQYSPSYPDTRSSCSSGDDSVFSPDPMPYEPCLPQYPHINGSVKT
Sequence of FGFR1 (407-822) (P11362 407-822): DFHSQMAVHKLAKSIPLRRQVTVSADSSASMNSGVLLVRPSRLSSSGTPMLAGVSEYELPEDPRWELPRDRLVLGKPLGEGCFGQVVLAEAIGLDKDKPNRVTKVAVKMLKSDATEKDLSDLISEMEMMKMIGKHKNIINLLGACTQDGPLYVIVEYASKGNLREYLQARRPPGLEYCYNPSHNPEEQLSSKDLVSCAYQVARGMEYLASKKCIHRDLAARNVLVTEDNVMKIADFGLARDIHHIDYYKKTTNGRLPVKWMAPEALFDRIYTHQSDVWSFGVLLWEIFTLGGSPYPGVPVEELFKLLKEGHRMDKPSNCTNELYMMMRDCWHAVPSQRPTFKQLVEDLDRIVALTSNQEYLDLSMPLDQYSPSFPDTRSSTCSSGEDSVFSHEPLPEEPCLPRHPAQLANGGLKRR

Row | IC50 (FGFR3 (411-806)) | IC50 (FGFR2 (406-821)) | IC50 (FGFR1 (407-822)) | Structure (SMILES) | IC50 [1] | IC50 (Tel-FGFR4) | IC50 [2]
1 | > 10000 nM | > 10000 nM | > 10000 nM | COCCOc1cc(NC(=O)N2CCCc3ccc(C=O)nc32)ncc1C#N [Example 23, N-(5-cyano-4-(2-methoxyethoxyl)pyridin-2-yl)-7-formyl-3,4-dihydro-1,8-naphthyridine-1(2H)-carboxamide] | – | – | –
2 | > 10000 nM | > 10000 nM | > 10000 nM | N#Cc1ccc(NC(=O)N2CCCCc3ccc(C=O)nc32)nc1 [Example 201, N-(5-cyanopyridin-2-yl)-2-formyl-7,8-dihydro-5H-pyrido[2,3-b]azepine-9(6H)-carboxamide] | – | – | –
3 | > 10000 nM | > 10000 nM | > 10000 nM | CN(C)CCOc1cc(NC(=O)N2CCCc3ccc(C=O)nc32)ncc1C#N [Example 38, N-(5-cyano-4-(2-(dimethylamino)ethoxy)pyridin-2-yl)-7-formyl-3,4-dihydro-1,8-naphthyridine-1(2H)-carboxamide] | – | – | –
4 | > 10000 nM | > 10000 nM | > 10000 nM | N#Cc1cnc(NC(=O)N2CCCc3cc(CO)c(C=O)nc32)cc1O[C@@H]1CCOC1 [Example 49, (R)-N-(5-cyano-4-((tetrahydrofuran-3-yl)oxy)pyridin-2-yl)-7-formyl-6-(hydroxymethyl)-3,4-dihydro-1,8-naphthyridine-1(2H)-carboxamide] | – | – | –
5 | > 10000 nM | > 10000 nM | > 10000 nM | O=Cc1ccc2c(n1)N(C(=O)Nc1ccc(C(F)(F)F)cn1)CCC2 [Example 1, 7-formyl-N-(5-(trifluoromethyl)pyridin-2-yl)-3,4-dihydro-1,8-naphthyridine-1(2H)-carboxamide] | – | – | –
6 | > 10000 nM | > 10000 nM | > 10000 nM | N#Cc1cnc(NC(=O)N2CCCc3ccc(C=O)nc32)nc1 [Example 8, N-(5-cyanopyrimidin-2-yl)-7-formyl-3,4-dihydro-1,8-naphthyridine-1(2H)-carboxamide] | – | – | –
7 | > 10000 nM | > 10000 nM | > 10000 nM | COCCNc1cc(NC(=O)N2CCCc3cc(CO)c(C=O)nc32)ncc1C#N [Example 80, N-(5-cyano-4-((2-methoxyethyl)amino)pyridin-2-yl)-7-formyl-6-(hydroxymethyl)-3,4-dihydro-1,8-naphthyridine-1(2H)-carboxamide] | – | – | –
8 | > 10000 nM | > 10000 nM | > 10000 nM | CN1CC[C@@H](Oc2cc(NC(=O)N3CCCc4cc(CO)c(C=O)nc43)ncc2C#N)C1 [Example 54, (R)-N-(5-cyano-4-((1-methylpyrrolidin-3-yl)oxy)pyridin-2-yl)-7-formyl-6-(hydroxymethyl)-3,4-dihydro-1,8-naphthyridine-1(2H)-carboxamide] | – | – | –
9 | – | – | – | COCCNc1cc(NC(=O)N2CCCc3cc(CN4CC[C@@H](O)C4=O)c(C=O)nc32)ncc1C#N [Example 105, (R)-N-(5-cyano-4-((2-methoxyethyl)amino)pyridin-2-yl)-7-formyl-6-((3-hydroxy-2-oxopyrrolidin-1-yl)methyl)-3,4-dihydro-1,8-naphthyridine-1(2H)-carboxamide] | 32.5 nM | 6.2 nM | 0.8 nM
10 | – | – | – | N#Cc1cnc(NC(=O)N2CCCc3cc(CN4CCCC4=O)c(C=O)nc32)cc1OCC1CCNC(=O)C1 (racemic) [Example 225, N-(5-cyano-4-((2-oxopiperidin-4-yl)methoxy)pyridin-2-yl)-7-formyl-6-((2-oxopyrrolidin-1-yl)methyl)-3,4-dihydro-1,8-naphthyridine-1(2H)-carboxamide] | 1000 nM | 76.5 nM | 5.7 nM
11 | – | > 10000 nM | > 10000 nM | COCCNc1cc(NC(=O)N2CCCc3cc(C4CCOCC4)c(C=O)nc32)ncc1C#N [Example 249, N-(5-cyano-4-((2-methoxyethyl)amino)pyridin-2-yl)-7-formyl-6-(tetrahydro-2H-pyran-4-yl)-3,4-dihydro-1,8-naphthyridine-1(2H)-carboxamide] | 222 nM | – | –
12 | – | – | – | CCc1cc(NC(=O)N2CCCc3cc(C=O)c(C=O)nc32)ncc1C#N [Example 106, N-(5-cyano-4-ethylpyridin-2-yl)-6,7-diformyl-3,4-dihydro-1,8-naphthyridine-1(2H)-carboxamide] | > 3000 nM | 2530 nM | 95 nM
13 | – | – | – | COC[C@@H](Oc1cc(NC(=O)N2CCCc3cc(C(F)F)c(C=O)nc32)ncc1C#N)C(F)(F)F [Example 173, (R)-N-(5-cyano-4-((1,1,1-trifluoro-3-methoxypropan-2-yl)oxy)pyridin-2-yl)-6-(difluoromethyl)-7-formyl-3,4-dihydro-1,8-naphthyridine-1(2H)-carboxamide] | 1360 nM | 142 nM | 33 nM
14 | – | – | – | COC(C)CNc1cc(NC(=O)N2CCCc3cc(CO)c(C=O)nc32)ncc1C#N (racemic) [Example 57, N-(5-cyano-4-((2-methoxypropyl)amino)pyridin-2-yl)-7-formyl-6-(hydroxymethyl)-3,4-dihydro-1,8-naphthyridine-1(2H)-carboxamide] | 436 nM | 11.3 nM | 3.9 nM
15 | > 10000 nM | > 10000 nM | > 10000 nM | COCCOc1cc(NC(=O)N2CCCc3cc(CO)c(C=O)nc32)ncc1C#N [Example 39, N-(5-cyano-4-(2-methoxyethoxyl)pyridin-2-yl)-7-formyl-6-(hydroxymethyl)-3,4-dihydro-1,8-naphthyridine-1(2H)-carboxamide] | – | – | –
16 | – | – | – | CC(=O)N(C)Cc1cc2c(nc1C=O)N(C(=O)Nc1cc(NCCOC(F)(F)F)c(C#N)cn1)CCC2 [Example 188, N-(5-cyano-4-((2-(trifluoromethoxy)ethyl)amino)pyridin-2-yl)-7-formyl-6-((N-methylacetamido)methyl)-3,4-dihydro-1,8-naphthyridine-1(2H)-carboxamide] | 59 nM | 5.2 nM | 0.4 nM
17 | > 10000 nM | > 10000 nM | > 10000 nM | O=Cc1ccc2c(n1)N(C(=O)Nc1ccc(C(F)(F)F)cn1)CCO2 [Example 14, 6-formyl-N-(5-(trifluoromethyl)pyridin-2-yl)-2H-pyrido[3,2-b][1,4]oxazine-4(3H)-carboxamide] | – | – | –
18 | > 10000 nM | > 10000 nM | > 10000 nM | N#Cc1cnc(NC(=O)N2CCCc3cc(CO)c(C=O)nc32)cc1O[C@H]1CCOC1 [Example 50, (S)-N-(5-cyano-4-((tetrahydrofuran-3-yl)oxy)pyridin-2-yl)-7-formyl-6-(hydroxymethyl)-3,4-dihydro-1,8-naphthyridine-1(2H)-carboxamide] | – | – | –
19 | – | – | – | COCCNc1cc(NC(=O)N2CCCc3cc(CN4CC[C@H](O)C4=O)c(C=O)nc32)ncc1C#N [Example 100, (S)-N-(5-cyano-4-((2-methoxyethyl)amino)pyridin-2-yl)-7-formyl-6-((3-hydroxy-2-oxopyrrolidin-1-yl)methyl)-3,4-dihydro-1,8-naphthyridine-1(2H)-carboxamide] | 23.5 nM | 5.3 nM | 0.9 nM
20 | > 10000 nM | > 10000 nM | > 10000 nM | COc1cc(NC(=O)N2CCCc3ccc(C=O)nc32)ncc1C#N [Example 13, N-(5-cyano-4-methoxypyridin-2-yl)-7-formyl-3,4-dihydro-1,8-naphthyridine-1(2H)-carboxamide] | – | – | –
21 | – | – | – | N#Cc1cnc(NC(=O)N2CCCc3cc(CO)c(C=O)nc32)cc1OCC1CCCCO1 (racemic) [Example 44, N-(5-cyano-4-((tetrahydro-2H-pyran-2-yl)methoxy)pyridin-2-yl)-7-formyl-6-(hydroxymethyl)-3,4-dihydro-1,8-naphthyridine-1(2H)-carboxamide] | 1230 nM | 31.3 nM | 8.1 nM
22 | > 10000 nM | > 10000 nM | > 10000 nM | CCOc1cc(NC(=O)N2CCCc3ccc(C=O)nc32)ncc1C#N [Example 19, N-(5-cyano-4-ethoxypyridin-2-yl)-7-formyl-3,4-dihydro-1,8-naphthyridine-1(2H)-carboxamide] | – | – | –
23 | > 10000 nM | > 10000 nM | > 10000 nM | CN(C)CC(C)(O)CNc1cc(NC(=O)N2CCCc3cc(CO)c(C=O)nc32)ncc1C#N (racemic) [Example 87, N-(5-cyano-4-((3-(dimethylamino)-2-hydroxy-2-methylpropyl)amino)pyridin-2-yl)-7-formyl-6-(hydroxymethyl)-3,4-dihydro-1,8-naphthyridine-1(2H)-carboxamide] | – | – | –
24 | – | – | – | COCCNc1cc(NC(=O)N2CCCc3cc(-n4ccnc4)c(C=O)nc32)ncc1C#N [Example 254, N-(5-cyano-4-((2-methoxyethyl)amino)pyridin-2-yl)-7-formyl-6-(1H-imidazol-1-yl)-3,4-dihydro-1,8-naphthyridine-1(2H)-carboxamide] | 1160 nM | 44.5 nM | 1.1 nM
25 | – | – | – | CC(C)n1cnc2cnc(NC(=O)N3CCCc4cc(CN5CCCC5=O)c(C=O)nc43)cc21 [Example 220, 7-formyl-N-(1-isopropyl-1H-imidazo[4,5-c]pyridin-6-yl)-6-((2-oxopyrrolidin-1-yl)methyl)-3,4-dihydro-1,8-naphthyridine-1(2H)-carboxamide] | > 3000 nM | 94 nM | 96 nM
26 | – | – | – | N#Cc1cnc(NC(=O)N2CCCc3cc(CO)c(C=O)nc32)cc1N[C@@H]1[C@H]2CC[C@H](C2)[C@@H]1CO (racemic) [Example 65, N-(5-cyano-4-(((1S*,2R*,3S*,4R*)-3-(hydroxymethyl)bicyclo[2.2.1]heptan-2-yl)amino)pyridin-2-yl)-7-formyl-6-(hydroxymethyl)-3,4-dihydro-1,8-naphthyridine-1(2H)-carboxamide] | 65 nM | 14.6 nM | 0.8 nM
